GI50 and TGI data for seven compounds are collected here from PubChem BioAssay (NCI).

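Test compounds were applied to cells in 96-well plates for 48 hours at 5 doses. GI50 = concentration required for 50% inhibition of growth. TGI denotes the concentration required for complete inhibition of growth.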 Bounds are passed on as bounds.

Among the test systems are MCF7 breast; ACHN renal; HS 578T breast; NCI-H23 lung; OVCAR-5 ovarian; MALME-3M melanoma; MDA-MB-435; BT-549 breast; SK-MEL-2 melanoma; OVCAR-3 ovarian.
Common to all, as to experiment: DTP human tumour cell line panel, 48 h

As usually defined, the GI50 is the concentration that inhibits growth by half. As a reminder, the TGI is the concentration at which net growth stops. As to `COc1ccc(-c2[nH]c3ccccc3c2C=C(C#N)C#N)cc1`, the GI50 in the assay with MCF7 breast was 0.346 µM; in the assay on ACHN renal, 2.26 µM; in the assay with HS 578T breast, 0.201 µM; with NCI-H23 lung it was 0.6 µM; in the assay with OVCAR-5 ovarian, 2.35 µM; in the assay on MALME-3M melanoma it was 0.874 µM. For the same compound, the figures for the GI50 with MDA-MB-435, in the assay with BT-549 breast and in the assay on OVCAR-3 ovarian were 0.13 µM, 0.769 µM and 0.263 µM, respectively. The TGI with MCF7 breast is > 100 µM; in the assay on ACHN renal, > 100 µM; in the assay with NCI-H23 lung, > 42.8 µM; in the assay on OVCAR-5 ovarian, > 100 µM; in the assay with MALME-3M melanoma, > 100 µM; with MDA-MB-435 it was 0.469 µM. In addition, the TGI was > 100 µM in the assay on BT-549 breast, > 100 µM in the assay on SK-MEL-2 melanoma and 0.713 µM with OVCAR-3 ovarian.

Take `Cn1ccnc1C(=O)/C=C/c1ccc(C(=O)Nc2ccc(Cl)cc2)cc1`: the GI50 in the assay with MCF7 breast was 0.899 µM; in the assay on ACHN renal, 0.62 µM; in the assay with HS 578T breast, 0.919 µM; with NCI-H23 lung, 1.25 µM; in the assay with OVCAR-5 ovarian, 1.1 µM; in the assay with MALME-3M melanoma, 2.23 µM. Further, the GI50 with MDA-MB-435 was 1.37 µM; with BT-549 breast, 0.958 µM; with SK-MEL-2 melanoma it was 7.68 µM; in the assay on OVCAR-3 ovarian it was 0.91 µM. The total growth inhibition concentration (TGI) in the assay with MCF7 breast was 24.1 µM; with ACHN renal, 1.24 µM; in the assay on HS 578T breast, > 33.3 µM; in the assay with NCI-H23 lung, 7.62 µM; in the assay on OVCAR-5 ovarian it was 5.64 µM; in the assay on MALME-3M melanoma, 12.2 µM. Further, the TGI in the assay with MDA-MB-435 is > 33.3 µM; with BT-549 breast it was 7.72 µM; in the assay with SK-MEL-2 melanoma, > 33.3 µM; in the assay on OVCAR-3 ovarian, 3.16 µM.

As for `O=C1NN(c2ccc(C(=O)O)cc2)C(=O)/C1=C\c1ccc([N+](=O)[O-])o1`, the GI50 in the assay with MCF7 breast was 22.4 µM; in the assay on ACHN renal, 24.4 µM; with HS 578T breast, > 100 µM; with NCI-H23 lung, 75.1 µM; with OVCAR-5 ovarian, > 100 µM; in the assay on MALME-3M melanoma, 20.7 µM. Besides, the GI50 in the assay with MDA-MB-435 is 32.1 µM; in the assay with BT-549 breast it was > 100 µM; in the assay with SK-MEL-2 melanoma, 83.1 µM; with OVCAR-3 ovarian, 20.9 µM. Further, the concentration for total growth inhibition (TGI) is 50.5 µM in the assay on MCF7 breast; 55.3 µM in the assay with ACHN renal; > 100 µM in the assay with HS 578T breast; > 100 µM in the assay with NCI-H23 lung; > 100 µM with OVCAR-5 ovarian; 41.2 µM with MALME-3M melanoma. Further, the concentration for total growth inhibition (TGI) in the assay with MDA-MB-435 was > 100 µM; in the assay on BT-549 breast it was > 100 µM; with SK-MEL-2 melanoma, > 100 µM; with OVCAR-3 ovarian it was 42.3 µM.

Take `Cn1cc(-c2nc(-c3c[nH]c4ncccc34)cs2)c2cc(F)ccc21`: the GI50 in the assay on MCF7 breast was 1.13 µM; in the assay on ACHN renal, 3.21 µM; in the assay on HS 578T breast it was 4.23 µM; in the assay on NCI-H23 lung, 2.4 µM; with OVCAR-5 ovarian, 1.25 µM; in the assay on MALME-3M melanoma, 2.73 µM. In addition, the GI50 in the assay on MDA-MB-435 was 1.12 µM; in the assay with BT-549 breast, 3.7 µM; with SK-MEL-2 melanoma, 3.81 µM; with OVCAR-3 ovarian it was 3.02 µM. Besides, the total growth inhibition concentration (TGI) in the assay with MCF7 breast was 6.53 µM; with ACHN renal, 14.7 µM; in the assay on HS 578T breast it was > 100 µM; in the assay with NCI-H23 lung, 10.1 µM; in the assay on OVCAR-5 ovarian it was 6.63 µM; in the assay with MALME-3M melanoma, 13.4 µM. The total growth inhibition concentration (TGI) with MDA-MB-435 stood at 4.88 µM; with BT-549 breast, 13.6 µM; in the assay with SK-MEL-2 melanoma it was 11.1 µM; in the assay on OVCAR-3 ovarian, 8.25 µM.

Consider `Cn1cc(C2=C(c3cccc4ccccc34)C(=O)NC2=O)c2ccccc21`, for which the GI50 was 5.7 µM with MCF7 breast; 7.48 µM in the assay with ACHN renal; 6.69 µM with HS 578T breast; 8.92 µM in the assay with NCI-H23 lung; 12.8 µM in the assay on OVCAR-5 ovarian; 9.45 µM in the assay with MALME-3M melanoma. The GI50 is 6.06 µM in the assay on MDA-MB-435, 7.49 µM with BT-549 breast, 7.33 µM with SK-MEL-2 melanoma and 6.06 µM in the assay with OVCAR-3 ovarian. Besides, the TGI was > 25 µM in the assay on MCF7 breast; > 25 µM in the assay on ACHN renal; > 24 µM in the assay with HS 578T breast; > 25 µM with NCI-H23 lung; > 25 µM with OVCAR-5 ovarian; 24.2 µM with MALME-3M melanoma. Further, the TGI with MDA-MB-435 is > 25 µM; in the assay on BT-549 breast, 19.7 µM; in the assay on SK-MEL-2 melanoma, 18.6 µM; in the assay with OVCAR-3 ovarian, 14.4 µM.

For the compound `Cc1cc(N2CCCCC2)nc(N(CCCNc2ccnc3cc(Cl)ccc23)Cc2ccco2)n1`, the GI50 in the assay with MCF7 breast is 1.81 µM; in the assay with ACHN renal, 3.3 µM; in the assay on HS 578T breast it was 3.02 µM; with NCI-H23 lung it was 1.58 µM; in the assay on OVCAR-5 ovarian, 3 µM; with MALME-3M melanoma, 2.03 µM. Besides, the GI50 with MDA-MB-435 is 1.65 µM; with BT-549 breast it was 2.65 µM; in the assay on SK-MEL-2 melanoma, 2.4 µM; with OVCAR-3 ovarian, 2.02 µM. Moreover, the total growth inhibition concentration (TGI) with MCF7 breast was 5.13 µM; in the assay with ACHN renal it was 12 µM; in the assay on HS 578T breast it was 11.4 µM; in the assay on NCI-H23 lung, 3.8 µM; with OVCAR-5 ovarian it was 15 µM; in the assay with MALME-3M melanoma, 3.68 µM. Also, the TGI in the assay on MDA-MB-435 was found to be 3.68 µM; in the assay with BT-549 breast, 8.54 µM; in the assay with SK-MEL-2 melanoma it was 6.25 µM; in the assay on OVCAR-3 ovarian, 5.01 µM.

Turning to `COc1cccc(C2c3cc4c(cc3OC(C)(O)C2C)OCO4)c1O` (stereo not drawn), the TGI in the assay with MCF7 breast was 49.6 µM; in the assay on ACHN renal, 79.1 µM; with HS 578T breast, 9.94 µM; with NCI-H23 lung, 12.4 µM; with OVCAR-5 ovarian, > 100 µM; in the assay with MALME-3M melanoma, 56.3 µM. For the same compound, the concentration for total growth inhibition (TGI) in the assay on MDA-MB-435 is > 100 µM; in the assay on BT-549 breast it was 52.8 µM; in the assay on SK-MEL-2 melanoma it was 65.3 µM; with OVCAR-3 ovarian, 8.48 µM.
